Assay results: PubChem BioAssay AID292 (DTP/NCI, 2004)
Values joined by “and” are separate entries in the source; they are usually repeats but may differ in a detail not shown here. Equal entries are not always repeated. Toxic doses and inconclusive results are not listed. How the source made its calls: active means survival T/C of 150% or more; inactive means T/C below 125% in these data.

Test system: B6C3F1 mice, ip Sarcoma M5076, median survival T/C
Test: NCI In Vivo Anticancer Drug Screen. Data for tumor model Sarcoma M5076 (intraperitoneal) in B6C3F1 mice
Details: endpoint: median survival time, higher = longer survival
Outline: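 Tumour cells were transplanted into mice, compound or vehicle was given, survival of both groups was followed, and the treated figure was expressed over the control figure.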

[1] = dose: 1.5 mg/kg/injection, schedule: Q04DX004 (ip), vehicle: saline with Tween-80
[2] = dose: 3.0 mg/kg/injection, schedule: Q04DX004 (ip), vehicle: saline with Tween-80
[3] = dose: 6.0 mg/kg/injection, schedule: Q04DX004 (ip), vehicle: saline with Tween-80
[4] = dose: 12.0 mg/kg/injection, schedule: Q04DX004 (ip), vehicle: saline with Tween-80
[5] = dose: 24.0 mg/kg/injection, schedule: Q04DX004 (ip), vehicle: saline with Tween-80
[6] = dose: 50.0 mg/kg/injection, schedule: Q04DX004 (ip), vehicle: saline
[7] = dose: 100.0 mg/kg/injection, schedule: Q04DX004 (ip), vehicle: saline
[8] = dose: 200.0 mg/kg/injection, schedule: Q04DX004 (ip), vehicle: saline
[9] = dose: 50.0 mg/kg/injection, schedule: Q04DX004 (ip), vehicle: Klucel (hydroxypropylcellulose) (HPC)
[10] = dose: 100.0 mg/kg/injection, schedule: Q04DX004 (ip), vehicle: Klucel (hydroxypropylcellulose) (HPC)
[11] = dose: 200.0 mg/kg/injection, schedule: Q04DX004 (ip), vehicle: Klucel (hydroxypropylcellulose) (HPC)
[12] = dose: 400.0 mg/kg/injection, schedule: Q04DX004 (ip), vehicle: Klucel (hydroxypropylcellulose) (HPC)

Measured: T/C

CC(C)c1cc(C(=O)O)c(O)c(C(C)C)c1.CC(C)c1cc(C(=O)O)c(O)c(C(C)C)c1.[Cu]
inactive: [1] 95 % of control and 104 % of control | [2] 102 % of control and 104 % of control | [3] 96 % of control and 102 % of control | [4] 88 % of control and 102 % of control | dose: 12.5 mg/kg/injection, schedule: Q04DX004 (ip), vehicle: saline with Tween-80 93 % of control | [5] 90 % of control

CN(C)C(=O)Nc1ccc(Cl)cc1
inactive: dose: 25.0 mg/kg/injection, schedule: Q04DX004 (ip), vehicle: suspension in saline 107 % of control | dose: 50.0 mg/kg/injection, schedule: Q04DX004 (ip), vehicle: suspension in saline 94 % of control and 105 % of control and 113 % of control | dose: 100.0 mg/kg/injection, schedule: Q04DX004 (ip), vehicle: suspension in saline 91 % of control and 102 % of control and 104 % of control | dose: 200.0 mg/kg/injection, schedule: Q04DX004 (ip), vehicle: suspension in saline 92 % of control and 97 % of control and 113 % of control | dose: 400.0 mg/kg/injection, schedule: Q04DX004 (ip), vehicle: suspension in saline 95 % of control and 98 % of control and 99 % of control

O=C1c2ccccc2C(=O)c2c(NCCNCCO)ccc(NCCNCCO)c21
inactive: dose: 1.0 mg/kg/injection, schedule: Q04DX004 (ip), vehicle: saline 112 % of control | dose: 2.0 mg/kg/injection, schedule: Q04DX004 (ip), vehicle: saline 120 % of control
active: dose: 5.0 mg/kg/injection, schedule: Q04DX005 (ip), vehicle: saline 234 % of control | dose: 8.0 mg/kg/injection, schedule: Q04DX004 (ip), vehicle: saline 158 % of control | dose: 10.0 mg/kg/injection, schedule: Q04DX005 (ip), vehicle: saline 319 % of control | dose: 16.0 mg/kg/injection, schedule: Q04DX004 (ip), vehicle: saline 174 % of control | dose: 20.0 mg/kg/injection, schedule: Q04DX004 (ip), vehicle: suspension in saline 156 % of control | dose: 40.0 mg/kg/injection, schedule: Q04DX004 (ip), vehicle: suspension in saline 172 % of control

O=S(=O)(O)SCCNCCCCC1CCCCC1
inactive: dose: 3.75 mg/kg/injection, schedule: Q04DX004 (ip), vehicle: saline with Tween-80 100 % of control | dose: 7.5 mg/kg/injection, schedule: Q04DX004 (ip), vehicle: saline with Tween-80 99 % of control | dose: 15.0 mg/kg/injection, schedule: Q04DX004 (ip), vehicle: saline with Tween-80 101 % of control

Nc1ccn([C@@H](C=O)C[C@@H](C=O)CO)c(=O)n1
inactive: dose: 25.0 mg/kg/injection, schedule: Q04DX004 (ip), vehicle: saline 99 % of control | [6] 99 % of control | [7] 103 % of control | [8] 108 % of control | dose: 400.0 mg/kg/injection, schedule: Q04DX004 (ip), vehicle: saline 118 % of control

O=C1c2ccccc2C(=O)c2c1cn1c2Cc2ccccc2C1
inactive: dose: 25.0 mg/kg/injection, schedule: Q04DX004 (ip), vehicle: Klucel (hydroxypropylcellulose) (HPC) 90 % of control | dose: 25.0 mg/kg/injection, schedule: Q04DX004 (ip), vehicle: other 96 % of control and 102 % of control | [9] 91 % of control and 93 % of control | dose: 50.0 mg/kg/injection, schedule: Q04DX004 (ip), vehicle: other 96 % of control and 103 % of control | [10] 90 % of control | dose: 100.0 mg/kg/injection, schedule: Q04DX004 (ip), vehicle: other 106 % of control | dose: 150.0 mg/kg/injection, schedule: Q04DX004 (ip), vehicle: other 93 % of control | [11] 88 % of control | dose: 200.0 mg/kg/injection, schedule: Q04DX004 (ip), vehicle: other 97 % of control | [12] 89 % of control and 95 % of control

C[CH2][Sn]([CH2]C)([CH2]C(=O)OC)[CH2]C(=O)OC
inactive: [1] 96 % of control | [2] 93 % of control | [3] 95 % of control | [4] 92 % of control

CC(C)c1ccc(C2NC(=S)NC(=O)C2C#N)cc1 (stereo not given)
inactive: [6] 100 % of control | [7] 97 % of control | [8] 88 % of control

O=C(Nc1ccc(Cl)c(Cl)c1)C1C(=O)C(=O)N(c2ccc(Cl)c(Cl)c2)C1=O (stereo not given)
inactive: [9] 91 % of control | [10] 92 % of control | [11] 89 % of control

CC1(CO)C(O)CCC2(C)C1CCC1CC3CC12CCC3(O)CO (stereo not given)
inactive: dose: 51.8 mg/kg/injection, schedule: Q04DX005 (ip), vehicle: Klucel (hydroxypropylcellulose) (HPC) 120 % of control | dose: 86.4 mg/kg/injection, schedule: Q04DX004 (ip), vehicle: Klucel (hydroxypropylcellulose) (HPC) 120 % of control | dose: 86.4 mg/kg/injection, schedule: Q04DX005 (ip), vehicle: Klucel (hydroxypropylcellulose) (HPC) 124 % of control | dose: 144.0 mg/kg/injection, schedule: Q04DX004 (ip), vehicle: Klucel (hydroxypropylcellulose) (HPC) 116 % of control | dose: 144.0 mg/kg/injection, schedule: Q04DX005 (ip), vehicle: Klucel (hydroxypropylcellulose) (HPC) 123 % of control | dose: 240.0 mg/kg/injection, schedule: Q04DX005 (ip), vehicle: Klucel (hydroxypropylcellulose) (HPC) 122 % of control
active: [12] 151 % of control and 164 % of control

NC(N)=NS(=O)(=O)c1ccc(NCc2c3ccccc3nc3ccccc23)cc1
active: [9] 159 % of control | [10] 151 % of control | [11] 178 % of control | [12] 158 % of control and 207 % of control | dose: 800.0 mg/kg/injection, schedule: Q04DX004 (ip), vehicle: Klucel (hydroxypropylcellulose) (HPC) 167 % of control and 194 % of control

O=c1cc(CCl)[nH]nc1CCl
inactive: [2] 111 % of control | [3] 110 % of control | [4] 112 % of control | [5] 120 % of control | dose: 48.0 mg/kg/injection, schedule: Q04DX004 (ip), vehicle: saline with Tween-80 114 % of control

Cc1ccc(-c2nnc3cc(C)n4nnnc4n23)cc1
inactive: dose: 17.5 mg/kg/injection, schedule: Q04DX004 (ip), vehicle: Klucel (hydroxypropylcellulose) (HPC) 97 % of control | dose: 35.0 mg/kg/injection, schedule: Q04DX004 (ip), vehicle: Klucel (hydroxypropylcellulose) (HPC) 99 % of control | dose: 70.0 mg/kg/injection, schedule: Q04DX004 (ip), vehicle: Klucel (hydroxypropylcellulose) (HPC) 99 % of control | dose: 140.0 mg/kg/injection, schedule: Q04DX004 (ip), vehicle: Klucel (hydroxypropylcellulose) (HPC) 101 % of control | dose: 280.0 mg/kg/injection, schedule: Q04DX004 (ip), vehicle: Klucel (hydroxypropylcellulose) (HPC) 97 % of control

N#CC1C(=O)NC(=S)NC1CCc1ccccc1 (stereo not given)
inactive: [9] 95 % of control | [10] 100 % of control | [11] 108 % of control

CCOC(=O)c1c(C(=O)OC)nc2n1-c1ccccc1OC2
inactive: dose: 31.25 mg/kg/injection, schedule: Q04DX004 (ip), vehicle: saline with Tween-80 100 % of control | dose: 62.0 mg/kg/injection, schedule: Q04DX004 (ip), vehicle: saline with Tween-80 103 % of control | dose: 125.0 mg/kg/injection, schedule: Q04DX004 (ip), vehicle: saline with Tween-80 100 % of control | dose: 250.0 mg/kg/injection, schedule: Q04DX004 (ip), vehicle: saline with Tween-80 88 % of control | dose: 500.0 mg/kg/injection, schedule: Q04DX004 (ip), vehicle: saline with Tween-80 96 % of control

CC1CCC(NC(=O)N(CCCl)N=O)CC1 (stereo not given)
inactive: dose: 3.0 mg/kg/injection, schedule: Q01DX004 (ip), vehicle: Klucel (hydroxypropylcellulose) (HPC) 108 % of control | dose: 6.0 mg/kg/injection, schedule: Q01DX004 (ip), vehicle: Klucel (hydroxypropylcellulose) (HPC) 104 % of control | dose: 12.0 mg/kg/injection, schedule: Q01DX004 (ip), vehicle: Klucel (hydroxypropylcellulose) (HPC) 108 % of control
active: dose: 48.0 mg/kg/injection, schedule: Q04DX004 (ip), vehicle: Klucel (hydroxypropylcellulose) (HPC) 254 % of control

O=C(N/N=C/c1ccco1)c1ccc(OCc2nc3ccccc3[nH]2)cc1
inactive: dose: 25.0 mg/kg/injection, schedule: Q04DX004 (ip), vehicle: saline with Tween-80 97 % of control | dose: 50.0 mg/kg/injection, schedule: Q04DX004 (ip), vehicle: saline with Tween-80 95 % of control | dose: 100.0 mg/kg/injection, schedule: Q04DX004 (ip), vehicle: saline with Tween-80 96 % of control | dose: 200.0 mg/kg/injection, schedule: Q04DX004 (ip), vehicle: saline with Tween-80 90 % of control
